“Also recorded” adds a separate entry of the source.

Consider one substance from article PMC5114558, “Reader domain specificity and lysine demethylase-4 family function” (Nature Communications, 2016).

Type in all cases: biochemical, human
One assay has as its system KDM4A full-length. The assay is described as follows: MS-based demethylation assay, 1:1 substrate competition, full-length KDM4A. The following applies: 1:1 (5 μM:5 μM) H3K36me3 and H3K23me3K36me3, MS; Supplementary Fig. 7d-e. On the procedure: (§1) In a typical demethylase reaction, the assay mixture containing 50 mM Tris pH 7.5, 50 mM NaCl, 50 μM (NH4)2Fe(SO4)2, 0.5 mM ascorbic acid, 1 mM α-ketoglutarate and 0.2 μM full-length KDM4A–C (Active Motif) was mixed with 5–10 μM of trimethylated histone peptides (detailed sequence information in Supplementary Table 1). Each peptide concentration was quantified by measuring Abs280nm for peptides containing either tryptophan or tyrosine residue. After incubation of assay mixture at 25 °C for 10, 30 and 60 min time point, 10 μl of aliquot was transferred to a clean tube containing 5 μl of 5% formic acid to quench the reaction. Each quenched sample was treated with standard StageTip protocol using C18 extraction disk (Model 2215, Empore, 3 M) to remove excess salts and detergents in the reaction mixture. Each eluate from StageTip containing peptides was dried at a reduced pressure (vacuum centrifuge) and was re-suspended with 10 μl of 5% acetonitrile solution (0.1% formic acid). The 1 μl of the sample was injected at 0.7 μl min^−1 flow rate onto a Dionex Ultimate 3000 Nano LC system equipped with Atlantis dC18 NanoEase reverse-phase column (3 μm, 100 μm × 150 mm, Waters) and coupled to a hybrid quadrupole-orbitrap MS (Q-Exactive, Thermo Scientific). The peptide was eluted at 4–15 min retention time with a linear gradient of 2–35% acetonitrile (0.1% formic acid). […]

In assay [1] the test system is KDM4B full-length protein. The assay can be described thus: MS-based demethylation assay, full-length KDM4B. As to conditions: 0.2 μM enzyme, 5–10 μM peptide, pH 7.5, 25 °C, MS read-out, single peptide substrates, Fig. 6a,b. The method, then:
In a typical demethylase reaction, the assay mixture containing 50 mM Tris pH 7.5, 50 mM NaCl, 50 μM (NH4)2Fe(SO4)2, 0.5 mM ascorbic acid, 1 mM α-ketoglutarate and 0.2 μM full-length KDM4A–C (Active Motif) was mixed with 5–10 μM of trimethylated histone peptides (detailed sequence information in Supplementary Table 1). Each peptide concentration was quantified by measuring Abs280nm for peptides containing either tryptophan or tyrosine residue. After incubation of assay mixture at 25 °C for 10, 30 and 60 min time point, 10 μl of aliquot was transferred to a clean tube containing 5 μl of 5% formic acid to quench the reaction. Each quenched sample was treated with standard StageTip protocol using C18 extraction disk (Model 2215, Empore, 3 M) to remove excess salts and detergents in the reaction mixture. Each eluate from StageTip containing peptides was dried at a reduced pressure (vacuum centrifuge) and was re-suspended with 10 μl of 5% acetonitrile solution (0.1% formic acid). The 1 μl of the sample was injected at 0.7 μl min^−1 flow rate onto a Dionex Ultimate 3000 Nano LC system equipped with Atlantis dC18 NanoEase reverse-phase column (3 μm, 100 μm × 150 mm, Waters) and coupled to a hybrid quadrupole-orbitrap MS (Q-Exactive, Thermo Scientific). The peptide was eluted at 4–15 min retention time with a linear gradient of 2–35% acetonitrile (0.1% formic acid). All the solvents used for liquid chromatography MS were HPLC grade (Fisher). For each analysis, MS1 scan range of 300–1,100 m/z was used and data-dependent MS/MS was obtained to identify the site of demethylation. Each peptide peak and its area integration was performed on the XCalibur Qual Browser.

Another assay relates to KDM4C full-length. The assay can be described thus: MS-based demethylation assay, 1:1 substrate competition, full-length KDM4C. The following applies: 1:1 (5 μM:5 μM) H3K36me3 and H3K23me3K36me3, MS; Supplementary Fig. 7d-e. On the procedure: as §1
For assay [2], the system named is KDM4B full-length protein. The assay is described as follows: MS-based demethylation assay, 1:1 substrate competition, full-length KDM4B. The following applies: 1:1 (5 μM:5 μM) H3K36me3 and H3K23me3K36me3, 25 °C, P<0.01 (Fig. 6c). The method, then:
as §1

As to “H3K23me3K36me3: demethylation assay peptide, Tufts University Core Facility”, the “preferential demethylation by KDM4A in 1:1 mixture” value with KDM4A full-length was “preferentially demethylates dually modified peptide; also recorded: enhanced for KDM4A and KDM4B but not KDM4C”. The “demethylation by full-length KDM4B” value in assay [1] is “faster rates of H3K36me2 and H3K36me1 product formation”; in assay [1] (listed as H3(20–42)K23me3K36me3) it was “increases H3K36me3 conversion to H3K36me1/2”. In addition, the “preferential demethylation by KDM4C in 1:1 mixture” value in the assay on KDM4C full-length is reported as “not KDM4C”. Besides, the “preferential demethylation by KDM4B in 1:1 mixture” value in assay [2] is reported as “preferentially demethylates dually modified peptide; also recorded: preferentially demethylate H3K36me3 in the context of dually modified peptide”.
